# Where a SMILES comes first, the peptide text is derived from it. Bridges are numbered along the chain shown (N, C = ends). [ ]: non-standard residue; d: D form. The star is where a group is joined. X1 = NC[C@@H](CC(=O)*)c1cccc(Cl)c1; Dab = NCC[C@H](N)C(=O)O; Dap = NC[C@H](N)C(=O)O
# Tests used:
# [1] = cited from earlier work
# [2] = Alveolar macrophage (AM) pharmacokinetics of SPR206 from BAL cell pellet; format: in vivo, human
# Protocol: (§1) This was a Phase 1, single-center, multiple-dose, open-label PK study in healthy adult male and female subjects. Subjects received three 100 mg doses of SPR206 administered q8h as a 1-h IV infusion. Three consecutive doses were sufficient to achieve steady-state based on a previous Phase 1 study in healthy subjects ([36]). A screening evaluation to determine eligibility for enrollment into the study was performed within 28 days of initial dosing. Subjects who met inclusion and exclusion criteria returned to the study unit 1 day before dosing (Day -1). Subjects who met inclusion and exclusion criteria were confined to the study site from Day -1 (1 day prior to start of dosing) and remained in the study site through completion of all scheduled procedures including collection of the last PK sample and bronchoscopy procedures along with safety evaluations (Day 2). Each subject underwent 1 bronchoscopy with BAL at 2, 3, 4, 6, or 8 h after the start of the third IV infusion. Subjects were required to return for a follow-up visit on Day 7 (+2 days) after discharge from the study site. The maximum duration of participation for each subject was up to 39 days (up to 28 days for Screening, 2 days of confinement, and up to 9 days for follow-up).
# (§2) Subjects were assigned to 1 of 5 bronchoscopy sampling times at 2, 3, 4, 6, or 8 (± 10 min) after the third IV infusion of SPR206. Each subject underwent 1 standardized bronchoscopy and BAL on Day 2 at the assigned time. A blood sample to determine plasma concentrations of SPR206 and urea was obtained during the bronchoscopy procedure at each BAL sampling time (approximating the time of collection of a second aspirate of BAL). Detail descriptions of the outpatient bronchoscopy, BAL procedures, and the handling, processing, and storage of samples have been previously described ([58][–][60]).
# (§3) The concentrations of SPR206 in BAL and in cell pellets were determined by Keystone Bioanalytical, Inc. using a validated LC-MS/MS method. ELF concentrations were calculated by the urea dilution method ([61], [62]). AM concentrations were determined from cell pellet drug concentrations, cell count in BAL fluid, and macrophage cell volume ([62]). The calibration curves for SPR206 were linear over a range from 2 to 1,000 ng/mL. The inter-assay precision (%CV) and accuracy (%RE) for SPR206 were 2.81% to 15.84% and -4.02% to 1.51%, respectively. The intra-assay precision (%CV) and accuracy (%RE) for SPR206 were 1.43% to 18.59% and -17.44% to 6.28%, respectively.
# (§4) Actual BAL samples were collected outside the protocol-specified sampling time windows. Thus, an updated method was utilized where the PK parameters for ELF or AM were calculated from composite concentration profiles of ELF or AM, respectively, based on the 27 subjects in the BAL PK population. Some blood samples were collected outside of the planned sampling windows, and therefore, individual plasma AUC0-8 was calculated first and the mean population plasma AUC0-8 was derived from all individual AUC0-8 values.
# Concentrations of SPR206 were summarized separately for plasma, ELF, and AM by nominal time point using descriptive statistics. The mean concentrations of SPR206 in BAL fluid obtained at the different BAL fluid sampling times (e.g., 2, 3, 4, 6, and 8 h) were used to estimate the AUC0-8 for SPR206 in plasma, ELF, and AM. The concentration at the final sampling time (8 h) also served as the time zero value for determining the AUC0-8 value of each matrix using Phoenix WinNonlin software (version 8.3, Certara Inc.). The ratios of the AUC0-8 of ELF or AM to the AUC0-8 of plasma (total and unbound) were calculated. Plasma protein binding analyses were not conducted as part of this study. The value used for the unbound fraction of SPR206 in plasma was 0.914 (Spero Therapeutics, Inc., data on file). The measured concentrations in ELF and AM represented unbound concentrations, since only unbound plasma fractions are considered to penetrate the lung compartments. […]
# [3] = tested on: kidney cell; details: cited from earlier work
# [4] = clinical; details: human, in vivo, iv, 100 mg
# Protocol: as §1
# Blood samples for determining SPR206 plasma concentrations were collected within 60 min pre-dose (0 h) prior to second and third doses of SPR206 only and at 2, 3, 4, 6, and 8 h after the start of the third dose of SPR206.
# Concentrations of SPR206 in plasma were determined by a validated liquid chromatography with tandem mass spectrometry (LC-MS/MS) assay performed at QPS, LLC. For plasma, the assay range was 50 to 50,000 ng/mL. In plasma, intraday precision (% coefficient of variation) ranged from 1.3% to 7.7%, and accuracy (% relative error) ranged from -1.2% to 9.5%. Interday precision ranged from 2.9% to 5.3% and accuracy ranged from 1.6% to 6.0%.
# PK analysis of SPR206 plasma concentrations was determined with noncompartmental PK analysis using Phoenix WinNonlin software (version 8.3, Certara Inc.). PK parameters were Tmax, Cmax, Cmin, and AUC0-8.
# as §4
# Concentrations of SPR206 were summarized separately for plasma, ELF, and AM by nominal time point using descriptive statistics. The mean concentrations of SPR206 in BAL fluid obtained at the different BAL fluid sampling times (e.g., 2, 3, 4, 6, and 8 h) were used to estimate the AUC0-8 for SPR206 in plasma, ELF, and AM. The concentration at the final sampling time (8 h) also served as the time zero value for determining the AUC0-8 value of each matrix using Phoenix WinNonlin software (version 8.3, Certara Inc.). The ratios of the AUC0-8 of ELF or AM to the AUC0-8 of plasma (total and unbound) were calculated. Plasma protein binding analyses were not conducted as part of this study. The value used for the unbound fraction of SPR206 in plasma was 0.914 (Spero Therapeutics, Inc., data on file). The measured concentrations in ELF and AM represented unbound concentrations, since only unbound plasma fractions are considered to penetrate the lung compartments. Individual plasma concentration-time profile versus time and arithmetic mean concentration (±SD) versus time plots were presented for the concentration-time data.
# [5] = Safety and tolerability in healthy subjects (Phase 1 BAL study); format: in vivo, human
# Protocol: as §1
# Subjects were continuously monitored during the bronchoscopy. Vital signs (blood pressure, heart rate, and respiratory rate) were recorded prior to the scheduled bronchoscopy time and at 15 min and 1 h following the end of bronchoscopy. Subjects were kept under observation for 2 to 3 h post-bronchoscopy for safety evaluations. Continuous pulse oximetry was conducted from the beginning of preparation of the subject for bronchoscopy until the post-procedure oxygen saturation was at least 93% on room air. Pulse oximetry was extended if a clinically significant increase in heart rate or cardiac rhythm abnormalities were detected. Other safety assessments included physical examinations, clinical laboratory monitoring (hematology, blood chemistry, and urinalysis), 12-lead ECG, and adverse event recording.
# [6] = Epithelial lining fluid (ELF) pharmacokinetics of SPR206 by bronchoscopy with BAL, urea dilution method; format: in vivo, human
# Protocol: as §1, §2, §3
# The concentration of urea in plasma and BAL fluid supernatants was determined using a validated LC/MS/MS method from Keystone Bioanalytical, Inc. Thirty human plasma and 30 BAL fluid samples were assayed for urea concentrations. A total of 10 samples for both plasma and BAL fluid (33.3%) were selected for testing, and the calculated assay variability was within 20%. The calibration curve for the urea assay in plasma was linear over the range from 100 to 3,000 μg/mL. The inter-assay precision (%CV) and accuracy (%RE) for SPR206 were 1.98% to 3.37% and -8.17% to 4.13%, respectively. The intra-assay precision (%CV) and accuracy (%RE) for SPR206 were 0.56% to 5.60% and -10.21% to 8.54%, respectively. The calibration range of the urea assay for BAL fluid was linear (r^2 > 0.998) over the range of 0.2 to 10 μg/mL. The inter-assay precision (%CV) and accuracy (%RE) for SPR206 were 6.40% to 9.77% and -3.22% to 1.47%, respectively. The intra-assay precision (%CV) and accuracy (%RE) for SPR206 were 0.96% to 12.08% and -11.30% to 9.15%, respectively.
# Actual BAL samples were collected outside the protocol-specified sampling time windows. Thus, an updated method was utilized where the PK parameters for ELF or AM were calculated from composite concentration profiles of ELF or AM, respectively, based on the 27 subjects in the BAL PK population. […]
# [7] = in vivo; cited from earlier work
# [8] = in vivo, cited from earlier work
# [9] = human, in vivo, iv; cited from earlier work
# [10] = BAL sampling time 2 hours post-dose
# [11] = BAL sampling time 2 hours post-dose, unbound fraction 0.914
# [12] = BAL sampling time 3 hours post-dose
# [13] = BAL sampling time 3 hours post-dose, unbound fraction 0.914
# [14] = BAL sampling time 4 hours post-dose
# [15] = BAL sampling time 4 hours post-dose, unbound fraction 0.914
# [16] = BAL sampling time 6 hours post-dose
# [17] = BAL sampling time 6 hours post-dose, unbound fraction 0.914
# [18] = BAL sampling time 8 hours post-dose
# [19] = BAL sampling time 8 hours post-dose, unbound fraction 0.914
# [20] = both sexes, human, in vivo, iv, 100 mg
compound,measurement,setting,value
CC(C)C[C@@H]1NC(=O)[C@@H](Cc2ccccc2)NC(=O)[C@H](CCN)NC(=O)[C@@H](NC(=O)[C@H](CN)NC(=O)[C@@H](NC(=O)C[C@H](CN)c2cccc(Cl)c2)[C@@H](C)O)CCNC(=O)[C@H]([C@@H](C)O)NC(=O)[C@H](CCN)NC(=O)[C@H](CCN)NC1=O [SPR206] (X1-T[Dap][Dab][Dab][dF]L[Dab][Dab]T; lactam 3-C (inferred)),Unbound fraction in plasma,[1],0.914
same,"Ratio AM to total plasma concentration, arithmetic mean ± SD",[2]; [10],0.206 ± 0.114
same,"Ratio AM to unbound plasma concentration, arithmetic mean ± SD",[2]; [11],0.226 ± 0.124
same,"Ratio AM to total plasma concentration, arithmetic mean ± SD",[2]; [12],0.184 ± 0.065
same,"Ratio AM to unbound plasma concentration, arithmetic mean ± SD",[2]; [13],0.201 ± 0.071
same,"Ratio AM to total plasma concentration, arithmetic mean ± SD",[2]; [14],0.223 ± 0.089
same,"Ratio AM to unbound plasma concentration, arithmetic mean ± SD",[2]; [15],0.244 ± 0.097
same,"Ratio AM to total plasma concentration, arithmetic mean ± SD",[2]; [16],0.519 ± 0.223
same,"Ratio AM to unbound plasma concentration, arithmetic mean ± SD",[2]; [17],0.568 ± 0.244
same,"Ratio AM to total plasma concentration, arithmetic mean ± SD",[2]; [18],0.503 ± 0.192
same,"Ratio AM to unbound plasma concentration, arithmetic mean ± SD",[2]; [19],0.550 ± 0.210
same,Ratio of AUC0-8 of AM to AUC0-8 of total plasma,"[2]; after third 100 mg IV dose, plasma n = 34, AM n = 27",0.300
same,Ratio of AUC0-8 of AM to AUC0-8 of unbound plasma,"[2]; after third 100 mg IV dose, plasma n = 34, AM n = 27, unbound fraction 0.914",0.328
same,AUC(0-t),[2]; [20],6030 ng·h/mL
same,Cmax,[2]; [20],861 ng/mL
same,Tmax,[2]; [20],6.4 h
same,Kidney cell cytotoxicity,[3],reduced kidney cell cytotoxicity
same,Vd,[4]; both sexes,19.8 L
same,half-life,[4]; both sexes,3.6 h
same,AUC(0-t),"[4]; both sexes, AUC0-8, geometric mean (CV%)",19800 ng·h/mL
same,Cmax,"[4]; both sexes, arithmetic mean (SD)",4400 ng/mL
same,Cmax,"[4]; both sexes, geometric mean (CV%)",4300 ng/mL
same,Tmax,"[4]; both sexes, Median time to peak plasma concentrations (Tmax)",2 h
same,Tmax,"[4]; both sexes, Tmax range",1.8 to 2.9 h
same,Tmax,"[4]; both sexes, Tmax, arithmetic mean (SD)",2.1 h
same,Tmax,"[4]; both sexes, Tmax, geometric mean (CV%)",2.1 h
same,"AUC0-8, geometric mean (CV%)",[4]; both,19817.9 (17.9) h*ng/mL
same,"Cmax, geometric mean (CV%)",[4]; both,4333.4 (17.2) ng/mL
same,"t1/2, geometric mean (CV%)",[4]; both,3.6 (13.5) hours
same,"Vz, geometric mean (CV%)",[4],19502.1 (18.1) mL
same,"Deaths, serious AEs, AEs leading to discontinuation",[5]; 100 mg IV q8h x 3 doses,"No deaths, serious AEs, or AEs leading to study drug discontinuation or study discontinuation were reported"
same,TEAEs reported as mild in severity (of 40 reported TEAEs),"[5]; human, in vivo, iv",85.0%
same,"Clinical laboratory parameters including blood urea nitrogen, serum creatinine, estimated creatinine clearance","[5]; human, in vivo, iv, 100 mg",No clinically significant abnormalities
same,"Ratio ELF to total plasma concentration, arithmetic mean ± SD",[6]; [10],0.183 ± 0.032
same,"Ratio ELF to unbound plasma concentration, arithmetic mean ± SD",[6]; [11],0.200 ± 0.035
same,"Ratio ELF to total plasma concentration, arithmetic mean ± SD",[6]; [12],0.199 ± 0.066
same,"Ratio ELF to unbound plasma concentration, arithmetic mean ± SD",[6]; [13],0.218 ± 0.072
same,"Ratio ELF to total plasma concentration, arithmetic mean ± SD",[6]; [14],0.190 ± 0.067
same,"Ratio ELF to unbound plasma concentration, arithmetic mean ± SD",[6]; [15],0.208 ± 0.074
same,"Ratio ELF to total plasma concentration, arithmetic mean ± SD",[6]; [16],0.428 ± 0.176
same,"Ratio ELF to unbound plasma concentration, arithmetic mean ± SD",[6]; [17],0.469 ± 0.192
same,"Ratio ELF to total plasma concentration, arithmetic mean ± SD",[6]; [18],0.347 ± 0.138
same,"Ratio ELF to unbound plasma concentration, arithmetic mean ± SD",[6]; [19],0.380 ± 0.151
same,Ratio of AUC0-8 of ELF to AUC0-8 of total plasma,"[6]; after third 100 mg IV dose, plasma n = 34, ELF n = 27",0.242
same,Ratio of AUC0-8 of ELF to AUC0-8 of unbound plasma,"[6]; after third 100 mg IV dose, plasma n = 34, ELF n = 27, unbound fraction 0.914",0.264
same,AUC(0-t),[6]; [20],4860 ng·h/mL
same,Cmax,[6]; [20],736 ng/mL
same,Tmax,[6]; [20],2.2 h
same,Exposure in the kidney,[7],lower exposure in the kidney than polymyxin B
colistin,Lung concentrations,[8]; iv,undetectable
same,Lung concentrations relative to MIC50 for P. aeruginosa,[8],below the MIC50 for P. aeruginosa
same,Levels in BAL fluid,[9],undetectable levels

# — PMC10353446, “Pharmacokinetics of SPR206 in Plasma, Pulmonary Epithelial Lining Fluid, and Alveolar Macrophages following Intravenous Administration to Healthy Adult Subjects” (Antimicrobial Agents and Chemotherapy, 2023)
